# Data: patent US20050282818A1, “Ubiquitin ligase inhibitors” (Rigel Pharmaceuticals, Inc., priority 2004, published 2005)
# Where two headings read alike, the source gives them in different places.
# Tests used:
# TRAF6/Uev1A/Ubc13 = biological target: T1, TRAF6/Uev1A/Ubc13 (Homo sapiens, UniProt Q9Y4K3); assay: TRAF6/Uev1A/Ubc13 plate-based ubiquitin ligase assay; assay type: biochemical
# T1 sequence (Q9Y4K3 1-522): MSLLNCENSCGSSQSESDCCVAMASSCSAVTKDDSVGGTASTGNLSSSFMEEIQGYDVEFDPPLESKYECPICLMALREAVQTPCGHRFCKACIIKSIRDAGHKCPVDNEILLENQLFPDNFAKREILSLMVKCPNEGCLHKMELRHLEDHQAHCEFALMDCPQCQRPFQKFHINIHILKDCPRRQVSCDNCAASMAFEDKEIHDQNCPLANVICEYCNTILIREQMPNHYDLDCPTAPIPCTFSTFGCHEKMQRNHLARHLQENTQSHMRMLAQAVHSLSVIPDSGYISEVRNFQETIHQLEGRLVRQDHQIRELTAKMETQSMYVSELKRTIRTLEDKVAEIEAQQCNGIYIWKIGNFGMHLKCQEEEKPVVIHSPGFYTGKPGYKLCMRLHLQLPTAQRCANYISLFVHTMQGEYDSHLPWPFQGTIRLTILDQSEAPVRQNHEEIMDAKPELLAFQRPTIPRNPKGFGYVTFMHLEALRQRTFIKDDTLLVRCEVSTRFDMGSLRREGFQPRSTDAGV
# Experimental: For the assays described below, the TRAF6/Uev1A/UBC13 assay is the biochemical plate-based assay of TRAF6 ligase activity using Ubc13 as the E2 enzyme. The gel-based assay is the biochemical solution-based TRAF6 ligase assay (by SDS-PAGE and Western blot) to confirm the plate-based ELISA assay. The APC assay is an assay which is another E3 ligase (APC2/APC11) biochemical assay.
# A 96-well Ni-plate was blocked with 100 μl of 1% casein in PBS for 1 hour at room temperature. The plates were then washed three times with 200 μl of 1×PBS and 80 μl of a reaction buffer was added per well which contained 50 ng of Flag-ubiquitin, 50 ng of His-ubiquitin, 62.5 mM Tris pH 7.5, 6.25 mM MgCl2, 1.0 mM DTT, and 2 μM ATP. To each well was added 10 μl of a solution of the compound in DMSO. The reaction was started by adding 10 μl of a solution consisting of 10 ng human E1, 25 ng each of Uev1a and Ubc13, and 100 ng TRAF6 in the reaction buffer. The plates were shaken for 10 minutes and incubate at room temperature for 1 hour. After the incubation, the plates were washed three times with 200 μl 1×PBS in 0.05% Tween and 100 μl of an antibody mix consisting of anti-Flag (1:30,000 dilution; Sigma F-3165) and anti-Mouse IgG-HRP (1/150,000 dilution; Jackson Immunoresearch #115-035-146) in 1×PBS with 0.25% BSA. The plates were then incubated for another 1 hour at room temperature, and after incubation the plate was washed three times with 200 μl 1×PBS with 0.05% Tween. The amount of ubiquitin was measured by adding 100 μl of Lumino substrate (1:5 dilution) and reading the luminescence with a fluorimeter.
# Table 2 below illustrates the inhibitory activity of the compounds of the invention determined by the TRAF6/Uev1A/Ubc13 assay as well as in the ICAM, APC and the ROC1/CUL1 Ubiquitin Ligase Assay (SCF Assay). The IC50 values were determined using a various concentrations of the compounds.
# A549 cells = assay: Cell proliferation PAD assay, A549; assay type: cell-based; conditions: Homo sapiens, 48 hours
# Experimental: (§1) Cell lines used are available from American Type Culture Collection (ATCC), for example, cell cultures containing A549 (ATCC# CCL-185), HeLa (ATCC# CCL-2), HCT116 ATTC# CCL-247), and H1299 (ATCC# CRL-5803) cells were maintained in T175 flasks following the ATCC recommended media and handling procedures. […] A 20,000 cells/ml solution was made for plating. Cells were plated in black Packard 96 well plates by placing 100 μl per well (2,000 cells per well). […] The definitions of the cell types used are as follows: A549 is lung carcinoma; HI 299 is non-small cell lung carcinoma; HI 155 is non-small cell lung carcinoma; AsPC-1 is pancreatic adenocarcinoma; Caov-3 is ovarian adenocarcinoma; COLO 205 is colorectal adenocarcinoma; DLD-1 colorectal adenocarcinoma; HCT116 is colorectal carcinoma; DU 145 is prostate carcinoma; ES-2 is ovarian clear cell carcinoma; H460 is large cell lung carcinoma; HELA is cervical adenocarcinoma; MIA PaCa-2 is pancreatice carcinoma; OVCAR-3 is ovarian adenocarcinoma; OVCAR8 is ovarian carcinoma; PC3 is prostate adenocarcinoma; SK-OV-3 is ovarian adenocarcinoma; SU86.86 is pancreatic carcinoma; TOV-21G is avarian clear cell carcinoma; U2OS is bone osteosarcoma; is ASPC-I is pancreatic adenocarcinoma; BXPC-3 is pabcreatic adenocarcinoma; HL60 is promyeloblast promyelocytic leukemia; K562 is bone marrow chronic myelogenous leukemia; L1210 is mouse lymphocytic leukemia; MOLT3 is T lymphoblast acute lymphoblastic leukemia; MOLT4 is T lymphoblast acute lymphoblastic leukemia; SW620 is colorectal adenocarcinoma; THP-1 is monocyte acute monocytic leukemia; U937 is histiocytic lymphoma; and UACC-257 is melanoma.
# (§2) Compounds and additional media were added 24 hours after cell plating. […] All compound testing was done in duplicate using 6.3 fold dilutions starting with 10 mM. […] Taxol and at least one additional control were run on all plates. Three microliters of the compound master plate were added to deep well blocks containing 750 μl of RPMI media. One hundred microliters were transferred from the compound/media deep well blocks to the plated cells resulting in a 500 fold dilution of the compounds. Cells were grown at 37° C., 5% CO2 for 48 hours.
# (§3) Cells to be analyzed by photography were fixed and stained. One hundred microliters of media were removed and 100 μl of 9.3% formamide was added to each well. Plates were left on the benchtop for 45 minutes. A staining solution containing 1.55 μl of 1 mg/ml DAPI added to 18.75 ml PBS was warmed for 15 minutes at 37° C. The cells were aspirated prior to washing with 100 μl of PBS. Seventy microliters of PBS were aspirated and 170 μl of the DAPI solution were added to each well of fixed cells. Plates were left at room temperature for one hour then aspirated and washed twice with 100 μl of PBS. The stained cells were left at 4° C. for a minimum of 16 hours before photographic analysis with Array Scan II (Cellomics). Analysis of the photographic images to determine numbers of live cells (proliferation), apoptotic cells and dead cells, were according to the methods described in U.S. Utility patent application Ser. No. 10/652,440, which incorporated herein in its entirety.
# H1299 cells = assay: Cell proliferation PAD assay, H1299; assay type: cell-based; conditions: Homo sapiens, 48 hours
# Experimental: as §1, §2, §3
# [1] = NCI-H1299, 3pt, read-out: H1299 3pt
# [2] = NCI-H1299, 6pt, read-out: H1299 6pt
Compound,IC50 (TRAF6/Uev1A/Ubc13) [µM],"IC50 (A549 cells; 3pt, read-out: A549 3pt) [µM]",IC50 (H1299 cells; [1]) [µM],"IC50 (A549 cells; 6pt, read-out: A549 6pt) [µM]",IC50 (H1299 cells; [2]) [µM]
"O=c1[nH]c2ccccc2n1C1CCN(c2ccc([N+](=O)[O-])c3nonc23)CC1 [compound 160, 1-[1-(7-nitro-2,1,3-benzoxadiazol-4-yl)piperidin-4-yl]-1,3-dihydro-2H-benzimidazol-2-one]",≥ 20,≥ 20,≥ 20,–,–
"Cc1cccc(N2CCN(c3ccc([N+](=O)[O-])c4nonc34)CC2)n1 [compound 162, 4-[4-(6-methylpyridin-2-yl)piperazin-1-yl]-7-nitro-2,1,3-benzoxadiazole]",≥ 20,≥ 20,≥ 20,–,–
"Cc1cccnc1N1CCN(c2ccc([N+](=O)[O-])c3nonc23)CC1 [compound 156, 4-[4-(3-methylpyridin-2-yl)piperazin-1-yl]-7-nitro-2,1,3-benzoxadiazole]",≥ 20,≥ 20,≥ 20,–,–
O=S(=O)(c1cccc2nonc12)N1CCC(Oc2ncccn2)CC1 [compound 235],≥ 20,≥ 20,≥ 20,–,–
"O=[N+]([O-])c1ccc(N2CCNCC2)c2nonc12 [compound 112, 4-nitro-7-piperazin-1-yl-2,1,3-benzoxadiazole]",≥ 20,≥ 20,≥ 20,–,–
"O=[N+]([O-])c1ccc(N2CCN(c3ccc(Cl)c(C(F)(F)F)c3)CC2)c2nonc12 [compound 105, {4-[4-chloro-3-(trifluoromethyl)phenyl]piperazin-1-yl}-7-nitro-2,1,3-benzoxadiazole]",≥ 20,≥ 20,≥ 20,–,–
"O=S(=O)(c1ccc(N2CCN(c3ccccc3)CC2)c2nonc12)N1CCN(c2ccccc2)CC1 [compound 187, 4-(4-phenylpiperazin-1-yl)-7-[(4-phenylpiperazin-1-yl)sulfonyl]-2,1,3-benzoxadiazole]",1 to 20,≥ 20,≥ 20,–,–
"O=S(=O)(c1cccc2nonc12)N1CCN(c2cnccn2)CC1 [compound 131, 4-[(4-pyrazin-2-ylpiperazin-1-yl)sulfonyl]-2,1,3-benzoxadiazole]",–,≥ 20,≥ 20,–,–
"O=S(=O)(Nc1c(F)cccc1F)c1cccc2nonc12 [compound 15, N-(2,6-difluorophenyl)-2,1,3-benzoxadiazole-4-sulfonamide]",–,≥ 20,1 to 20,–,–
"COc1cccc(-c2cc(Cl)c3nonc3c2)c1 [compound 328, 4-Chloro-6-(3-methoxyphenyl)-2,1,3-benzoxadiazole]",–,–,–,≥ 20,≥ 20
"N#Cc1ccc(N2CCN(S(=O)(=O)c3cccc4nonc34)CC2)nc1 [compound 120, 6-[4-(2,1,3-benzoxadiazol-4-ylsulfonyl)piperazin-1-yl]nicotinonitrile]",–,≥ 20,≥ 20,–,–

# More lines, now with the values ahead:
IC50 (TRAF6/Uev1A/Ubc13) [µM],"IC50 (A549 cells; 3pt, read-out: A549 3pt) [µM]",IC50 (H1299 cells; [1]) [µM],"IC50 (A549 cells; 6pt, read-out: A549 6pt) [µM]",IC50 (H1299 cells; [2]) [µM],Compound
≥ 20,≥ 20,≥ 20,–,–,"CC(=O)N1CCN(c2ccc([N+](=O)[O-])c3nonc23)CC1 [compound 88, 4-(4-acetylpiperazin-1-yl)-7-nitro-2,1,3-benzoxadiazole]"
≥ 20,≥ 20,≥ 20,–,–,"O=S(=O)(Nc1ccc(Oc2ccccc2)cc1)c1cccc2nonc12 [compound 102, N-(4-phenoxyphenyl)-2,1,3-benzoxadiazole-4-sulfonamide]"
≥ 20,1 to 20,1 to 20,1 to 20,1 to 20,"COC(=O)c1ccc(NS(=O)(=O)c2ccc(Sc3cccc4cccnc34)c3nonc23)cc1 [compound 174, methyl 4-({[7-(quinolin-8-ylthio)-2,1,3-benzoxadiazol-4-yl]sulfonyl}amino)benzoate]"
≥ 20,≥ 20,≥ 20,–,–,"CC(C)(C)OC(=O)N1CCN(c2ccc([N+](=O)[O-])c3nonc23)CC1 [compound 72, Tert-butyl 4-(7-nitro-2,1,3-benzoxadiazol-4-yl)piperazine-1-carboxylate]"
≥ 20,–,–,≥ 20,≥ 20,"CC(C)(C)c1ccc(-c2cccc3nonc23)cc1 [compound 307, 4-(4-Tert-butylphenyl)-2,1,3-benzoxadiazole]"
1 to 20,–,–,≥ 20,≥ 20,"O=S(=O)(Nc1cccc2nonc12)c1ccc(Oc2ccccc2)cc1 [compound 93, N-2,1,3-benzoxadiazol-4-yl-4-phenoxybenzenesulfonamide]"
≥ 20,1 to 20,≥ 20,–,–,"O=S(=O)(Nc1cccc2nsnc12)c1ccc(Oc2cccnc2)cc1 [compound 116, N-2,1,3-benzothiadiazol-4-yl-4-(pyridin-3-yloxy)benzenesulfonamide]"
–,≥ 20,≥ 20,–,–,"O=S(=O)(Nc1ccc(F)c(F)c1)c1cccc2nonc12 [compound 23, N-(3,4-difluorophenyl)-2,1,3-benzoxadiazole-4-sulfonamide]"
–,≥ 20,≥ 20,–,–,"N#Cc1cccnc1N1CCN(S(=O)(=O)c2cccc3nonc23)CC1 [compound 119, 2-[4-(2,1,3-benzoxadiazol-4-ylsulfonyl)piperazin-1-yl]nicotinonitrile]"
–,≥ 20,≥ 20,–,–,"O=S(=O)(NCCF)c1cccc2nonc12 [compound 59, N-(2-fluoroethyl)-2,1,3-benzoxadiazole-4-sulfonamide]"
–,≥ 20,≥ 20,–,–,"O=S(=O)(Nc1ccncc1)c1cccc2nonc12 [compound 68, N-pyridin-4-yl-2,1,3-benzoxadiazole-4-sulfonamide]"
